For the assay, the system named is human colon tumour cell line HT29. In words: Cellular Assay (phosphohistone H3 Ser10 mitotic marker, HT29). It counts as cell-based. The note with it: HT-29, 24 h, HT29 cells, read-out: IC50 (cellular assay, phosphohistone H3).

These results are taken from patent US7709471B2, “Compounds” (AstraZeneca AB, priority 2006, dated 2010).

Bounds are passed on as bounds.

Experimental: Chromosome condensation in mitosis is accompanied by phosphorylation of histone H3 on serine 10.
After 24 hours, cells were fixed in 3.7% (v/v) formaldehyde then permeabilised and blocked for 10 minutes in 100 μl 0.5% (v/v) Triton X-100, 1% (w/v) bovine serum albumin (BSA) in phosphate buffered saline (PBS). […] The raw assay data were analysed by non-linear regression analysis and used to determine an IC50 value for each compound.

For the compound `COc1cc(C(=O)NC2C[C@H]3CCC[C@@H](C2)N3C)c(F)cc1Nc1ncc2c(n1)N(C1CCCCC1)CCC(=O)N2C` (stereo partly drawn) [Example 427, 4-[(2-cyclohexyl-6-methyl-5-oxo-2,6,9,11-tetrazabicyclo[5.4.0]undeca-7,9,11-trien-10-yl)amino]-2-fluoro-5-methoxy-N-[(1R,5S)-9-methyl-9-azabicyclo[3.3.1]non-7-yl]benzamide], the IC50 was under 300 nM.
Next, `CCOc1cc(C(=O)NC2CCC(N(C)C)CC2)ccc1Nc1ncc2c(n1)N(C(C)C)CCC(=O)N2C` (stereo not drawn) [Example 286, N-(4-dimethylaminocyclohexyl)-3-ethoxy-4-[(6-methyl-5-oxo-2-propan-2-yl-2,6,9,11-tetrazabicyclo[5.4.0]undeca-7,9,11-trien-10-yl)amino]benzamide]: under 30000 nM.
Next, `CN(C)CCNC(=O)c1ccc(Nc2ncc3c(n2)N(C2CCCC2)CC2(CC2)C(=O)N3C)c(Cl)c1` [Example 390, 3-chloro-4-(9′-cyclopentyl-5′-methyl-6′-oxo-5′,6′,8′,9′-tetrahydrospiro[cyclopropane-1,7′-pyrimido[5,4-b][1,4]diazepine]-2′-ylamino)-N-(2-dimethylaminoethyl)benzamide]: under 1000 nM; `CN1CCC(NC(=O)c2ccc(Nc3ncc4c(n3)N(C3CCCC3)CCC(=O)N4C)c3c2OCO3)CC1` [Example 341, 7-[(2-cyclopentyl-6-methyl-5-oxo-2,6,9,11-tetrazabicyclo[5.4.0]undeca-7,9,11-trien-10-yl)amino]-N-(1-methyl-4-piperidyl)benzo[1,3]dioxole-4-carboxamide]: under 300 nM; `CCN1CCC(NC(=O)c2cc(Cl)c(Nc3ncc4c(n3)N(C3CCCC3)CC3(CC3)C(=O)N4C)cc2F)CC1` [Example 393, 5-chloro-4-(9′-cyclopentyl-5′-methyl-6′-oxo-5′,6′,8′,9′-tetrahydrospiro[cyclopropane-1,7′-pyrimido[5,4-b][1,4]diazepine]-2′-ylamino)-N-(1-ethyl-4-piperidyl)-2-fluoro-benzamide]: under 300 nM.
The value for `CN1CCC(NC(=O)c2cc(F)c(Nc3ncc4c(n3)N(C3CCCCC3)CCC(=O)N4C)cc2Cl)CC1` [Example 411, 2-chloro-4-[(2-cyclohexyl-6-methyl-5-oxo-2,6,9,11-tetrazabicyclo[5.4.0]undeca-7,9,11-trien-10-yl)amino]-5-fluoro-N-(1-methyl-4-piperidyl)benzamide] was under 1000 nM; that for `CN1CCC(NC(=O)c2ccc(Nc3ncc4c(n3)N(C3CCCCC3)CC3(CC3)C(=O)N4C)c(F)c2)CC1` [Example 446, 4-(9′-cyclohexyl-5′-methyl-6′-oxo-5′,6′,8′,9′-tetrahydrospiro[cyclopropane-1,7′-pyrimido[5,4-b][1,4]diazepine]-2′-ylamino)-3-fluoro-N-(1-methyl-4-piperidyl)benzamide] was under 300 nM; that for `CN1C(=O)C2(CC2)CN(C2CCCCC2)c2nc(Nc3ccc(C(=O)NC4C[C@H]5CCC[C@@H](C4)N5C)cc3F)ncc21` (stereo partly drawn) [Example 435, 4-(9′-cyclohexyl-5′-methyl-6′-oxo-5′,6′,8′,9′-tetrahydrospiro[cyclopropane-1,7′-pyrimido[5,4-b][1,4]diazepine]-2′-ylamino)-3-fluoro-N-[(1S,5R)-9-methyl-9-azabicyclo[3.3.1]non-7-yl]benzamide] was under 300 nM.
In the case of `CN1CCC(NC(=O)c2ccc(Nc3ncc4c(n3)N(C3CCCC3)CC3(CC3)C(=O)N4C)c3c2OCO3)CC1` [Example 408, 7-(9′-cyclopentyl-5′-methyl-6′-oxo-5′,6′,8′,9′-tetrahydrospiro[cyclopropane-1,7′-pyrimido[5,4-b][1,4]diazepine]-2′-ylamino)-N-(1-methyl-4-piperidyl)benzo[1,3]dioxole-4-carboxamide], the IC50 is under 300 nM.
The value for `CCN1CC[C@@H](NC(=O)c2ccc(Nc3ncc4c(n3)N(C3CCCC3)CC(C)(C)C(=O)N4C)c(OC)c2)C1` [Example 369, 4-[(2-cyclopentyl-4,4,6-trimethyl-5-oxo-2,6,9,11-tetrazabicyclo[5.4.0]undeca-7,9,11-trien-10-yl)amino]-N-[(3R)-1-ethylpyrrolidin-3-yl]-3-methoxy-benzamide] was under 300 nM.
Next, `CN1C(=O)C2(CC2)CN(C2CCCC2)c2nc(Nc3ccc(C(=O)NC4C[C@H]5CCC[C@@H](C4)N5C)cc3F)ncc21` (stereo partly drawn) [Example 388, 4-(9′-cyclopentyl-5′-methyl-6′-oxo-5′,6′,8′,9′-tetrahydrospiro[cyclopropane-1,7′-pyrimido[5,4-b][1,4]diazepine]-2′-ylamino)-3-fluoro-N-[(1S,5R)-9-methyl-9-azabicyclo[3.3.1]non-7-yl]benzamide]: under 300 nM; `CCN1CCC(NC(=O)c2cc(F)c(Nc3ncc4c(n3)N(C3CCCC3)CC(C)(C)C(=O)N4C)cc2F)CC1` [Example 355, 4-[(2-cyclopentyl-4,4,6-trimethyl-5-oxo-2,6,9,11-tetrazabicyclo[5.4.0]undeca-7,9,11-trien-10-yl)amino]-N-(1-ethyl-4-piperidyl)-2,5-difluoro-benzamide]: under 300 nM.
Next, `COc1cc(C(=O)NCCN(C)C)ccc1Nc1ncc2c(n1)N(C1CCCCC1)CCC(=O)N2C` [Example 426, 4-[(2-cyclohexyl-6-methyl-5-oxo-2,6,9,11-tetrazabicyclo[5.4.0]undeca-7,9,11-trien-10-yl)amino]-N-(2-dimethylaminoethyl)-3-methoxy-benzamide]: under 300 nM; `CCN1CCC(NC(=O)c2ccc(Nc3ncc4c(n3)N(C(C)C)CC(C)(C)C(=O)N4C)c(OC)c2)CC1` [Example 300, N-(1-ethyl-4-piperidyl)-3-methoxy-4-[(4,4,6-trimethyl-5-oxo-2-propan-2-yl-2,6,9,11-tetrazabicyclo[5.4.0]undeca-7,9,11-trien-10-yl)amino]benzamide]: under 300 nM.
Take `COc1cc(C(=O)NCC2(CN3CCCC3)CC2)c(F)cc1Nc1ncc2c(n1)N(C1CCCCC1)CC1(CC1)C(=O)N2C` [Example 445, 4-(9′-cyclohexyl-5′-methyl-6′-oxo-5′,6′,8′,9′-tetrahydrospiro[cyclopropane-1,7′-pyrimido[5,4-b][1,4]diazepine]-2′-ylamino)-2-fluoro-5-methoxy-N-[[1-(pyrrolidin-1-ylmethyl)cyclopropyl]methyl]benzamide]: the IC50 was under 300 nM.
Next, `COc1cc(C(=O)NCCN2CCCC2)ccc1Nc1ncc2c(n1)N(C1CCCC1)CC(C)(C)C(=O)N2C` [Example 358, 4-[(2-cyclopentyl-4,4,6-trimethyl-5-oxo-2,6,9,11-tetrazabicyclo[5.4.0]undeca-7,9,11-trien-10-yl)amino]-3-methoxy-N-(2-pyrrolidin-1-ylethyl)benzamide]: under 300 nM.
The value for `CCN1CCC(NC(=O)c2cc(F)c(Nc3ncc4c(n3)N(C3CCCC3)CC3(CC3)C(=O)N4C)cc2F)CC1` [Example 395, 4-(9′-cyclopentyl-5′-methyl-6′-oxo-5′,6′,8′,9′-tetrahydrospiro[cyclopropane-1,7′-pyrimido[5,4-b][1,4]diazepine]-2′-ylamino)-N-(1-ethyl-4-piperidyl)-2,5-difluoro-benzamide] was under 300 nM; that for `CN1CCC(NC(=O)c2cc(F)c(Nc3ncc4c(n3)N(C3CCCCC3)CCC(=O)N4C)cc2F)CC1` [Example 412, 4-[(2-cyclohexyl-6-methyl-5-oxo-2,6,9,11-tetrazabicyclo[5.4.0]undeca-7,9,11-trien-10-yl)amino]-2,5-difluoro-N-(1-methyl-4-piperidyl)benzamide] was under 300 nM.
`CN1CCC(NC(=O)c2cc(F)c(Nc3ncc4c(n3)N(C3CCCCC3)CC3(CC3)C(=O)N4C)cc2F)CC1` [Example 436, 4-(9′-cyclohexyl-5′-methyl-6′-oxo-5′,6′,8′,9′-tetrahydrospiro[cyclopropane-1,7′-pyrimido[5,4-b][1,4]diazepine]-2′-ylamino)-2,5-difluoro-N-(1-methyl-4-piperidyl)benzamide]: the IC50 was under 300 nM.
The value for `CN1C(=O)C2(CC2)CN(C2CCCC2)c2nc(Nc3cc(F)c(C(=O)NCCN4CCCC4)cc3F)ncc21` [Example 397, 4-(9′-cyclopentyl-5′-methyl-6′-oxo-5′,6′,8′,9′-tetrahydrospiro[cyclopropane-1,7′-pyrimido[5,4-b][1,4]diazepine]-2′-ylamino)-2,5-difluoro-N-(2-pyrrolidin-1-ylethyl)benzamide] was under 300 nM; that for `CN1CCC(NC(=O)c2cc(F)c(Nc3ncc4c(n3)N(C3CCCC3)CC(C)(C)C(=O)N4C)cc2F)CC1` [Example 356, 4-[(2-cyclopentyl-4,4,6-trimethyl-5-oxo-2,6,9,11-tetrazabicyclo[5.4.0]undeca-7,9,11-trien-10-yl)amino]-2,5-difluoro-N-(1-methyl-4-piperidyl)benzamide] was under 300 nM; that for `COc1cc(C(=O)NC2C[C@H]3CCC[C@@H](C2)N3C)c(F)cc1Nc1ncc2c(n1)N(C1CCCCC1)CC1(CC1)C(=O)N2C` (stereo partly drawn) [Example 442, 4-(9′-cyclohexyl-5′-methyl-6′-oxo-5′,6′,8′,9′-tetrahydrospiro[cyclopropane-1,7′-pyrimido[5,4-b][1,4]diazepine]-2′-ylamino)-2-fluoro-5-methoxy-N-[(1S,5R)-9-methyl-9-azabicyclo[3.3.1]non-3-yl]benzamide] was under 300 nM.
The value for `CN1C(=O)CCN(C2CCCCC2)c2nc(Nc3cc(F)c(C(=O)NCC4(CN5CCCC5)CC4)cc3F)ncc21` [Example 413, 4-[(2-cyclohexyl-6-methyl-5-oxo-2,6,9,11-tetrazabicyclo[5.4.0]undeca-7,9,11-trien-10-yl)amino]-2,5-difluoro-N-[[1-(pyrrolidin-1-ylmethyl)cyclopropyl]methyl]benzamide] was under 1000 nM.
The value for `CCC1(CC)CN(C2CCCC2)c2nc(Nc3ccc(C(=O)NC4CCN(C)CC4)cc3OC)ncc2N(C)C1=O` [Example 380, 4-[(2-cyclopentyl-4,4-diethyl-6-methyl-5-oxo-2,6,9,11-tetrazabicyclo[5.4.0]undeca-7,9,11-trien-10-yl)amino]-3-methoxy-N-(1-methyl-4-piperidyl)benzamide] was under 300 nM.
